Where two headings read alike, the source gives them in different places.
How the values were obtained:
GABAB receptors = target: T1, GABAB receptors (Rattus norvegicus, UniProt Q9Z0U4); conditions: 2-hydroxysaclofen; cited from earlier work
T1 construct: microinjection of baclofen (0.1-1 nmol) into the ventral tegmental area; host or cells: ventral tegmental area of living animals (endogenous receptor)

[1] = tested on: extracellular DA in the NACC; assay: Microdialysis: ethanol-induced increases in NACC DA; assay type: in vivo, rats; conditions: ethanol 1.0 g/kg i.p., approximately 125 minutes following administration
Procedure: Ethanol at a dose of 1.0 g/kg i.p. was administered to the animals.

Sprague-Dawley rats = assay: Gross locomotor activity during microdialysis (infrared motion sensor); conditions: nicotine, regardless of the dose of GVG
Description: In parallel to the quantitative estimates of dopamine concentration, the locomotor response of these animals to stimulant administration was simultaneously quantified using an infrared motion sensor. This infrared optical proximity detector monitored movement of the gimbaled arm, an integral component of the freely moving system. The digital output of the detector was interfaced with an IBM personal computer and programmed to count both positive and negative arm deflections. […] Locomotor activity was then expressed as the number of deflections per sample interval.

norepinephrine (NE) = assay: Microdialysis Example 15: extracellular norepinephrine after nicotine; assay type: in vivo; conditions: nicotine 0.4 mg/kg s.c., saline pretreated animals
Procedure: (§1) Briefly, two days prior to the microdialysis experiments, siliconized guide cannulae were implanted targeting the NAcc (A=+1.5 mm, L=−1.0 mm, V=−5.6 mm). […] Dialysate samples were assayed for monoamine content by microbore high-pressure liquid chromatography (HPLC) coupled with electrochemical detection. […] Peak effects were analyzed with a one-way ANOVA, and post-hoc Bonferroni t-test of topiramate pretreated groups compared to saline pretreated controls provided ANOVA significance at a critical value of 0.05.

[2] = tested on: extracellular DA levels in the NACC; conditions: cited from earlier work
[3] = tested on: mesolimbic extracellular dopamine (DA), NAcc; assay: Microdialysis Example 15: extracellular dopamine after nicotine; assay type: in vivo; conditions: nicotine 0.4 mg/kg s.c., saline pretreated animals
Procedure: as §1

serotonin (5-HT) = assay: Microdialysis Example 15: extracellular serotonin after nicotine; assay type: in vivo; conditions: nicotine 0.4 mg/kg s.c., saline pretreated animals
Procedure: as §1

[4] = tested on: extracellular DA in the NACC; assay: In vivo microdialysis: nicotine-induced increases in extracellular NACC DA; design: species or system rats
Description: All animals were used under an IACUC-approved protocol and with strict adherence to the NIH guidelines. Adult male Sprague-Dawley rats (200-300 g, Taconic Farms), housed in the animals care facility under 12:12 light/dark conditions, were placed into 6 groups (n=5-9), anesthetized and siliconized guide cannulae were stereotactically implanted into the right NACC (2.0 mm anterior and 1.0 mm lateral to bregms, and 7.0 mm ventral to the cortical surface) at least 4 days prior to study. […] Animals were placed in bowls, and probes were inserted and flushed with ACSF overnight. On the day of the study, a minimum of three samples were injected to determine baseline stability. Samples were collected for 20 min. and injected on-line (CMA/160, BAS). The average Dopamine concentration of these three stable samples was defined as control (100%), and all subsequent treatment values were transformed to a percentage of that control. […] The high performance liquid chromatography (HPLC) system consists of a BAS reverse-phase column (3.0 μC-18), a BAS LC-4C electrochemical transducer with a dual/glassy carbon electrode set at 650 mV, a computer that analyzes data on-line using a commercial software package (Chromograph Bioanalytical Systems), and a dual pen chart recorder. The mobile phase (flow rate 1.0 ml/min) consisted of 7.0% methanol, 50 mM sodium phosphate monobasic, 1.0 mM sodium octyl sulfate, and 0.1 mm EDNA, pH 4.0. […] Upon completion of the study, animals were decapitated and frozen sections were obtained for probe placement verification.
The open circles are control animals.
In all studies, animals were placed in the microdialysis bowls the night before the experiment and artificial cerebrospinal fluid (ACSF) was perfused through the microdialysis probes at a flow rate of 2.0 μl/min. At the end of each study, animals were sacrificed and their brains were removed and sectioned for probe placement verification.

rats [5] = assay: Nicotine-induced conditioned place preference; assay type: in vivo
Description: A total of 8 rats were examined for each treatment pairing. Animals received 4 pairings over an 8 day period, one pairing per day. […] The protocol on days 1 and 2 was repeated 3 additional times.
The CPP apparatus was made entirely of plexiglass, except for the floor in one of the pairing chambers, which was made of a stainless steel plate with holes (0.5 mm in diameter) spaced 0.5 mm from edge to edge. The two pairing chambers differed in visual and tactile cues. One chamber was entirely light blue with the stainless steel floor and the second chamber was light blue with horizontal black stripes (2.5 cm wide) spaced 3.8 cm apart with a smooth plexiglass floor.
The conditioning procedure consisted of 20 sessions carried out consecutively over 20 days. The first three sessions were habituation sessions, during which the animals were handled for 5 minutes per day and exposed to the sights and sounds of the test room. […] The amount of time spent in each chamber was recorded using an automated infrared beam electronically coupled to a timer.
The animals were habituated as described above. […] Subsequently, the animals were then placed into the appropriate chamber for 30 minutes. This was repeated for 8 pairings over a 16 day period. On the test day, animals were placed in the CPP apparatus and allowed free access to the all of the CPP chambers and the amount of time spent in chamber was recorded.

[6] = tested on: synaptic DA (11C-raclopride binding, striatum); assay: Primate PET: 11C-raclopride mean DV ratio, GVG and nicotine; assay type: in vivo, baboons (Papio anubis)
Procedure: Adult female baboons (n=16) (Papio anubis, 13-18 kg) were used for all imaging studies and carbon-11 labeled raclopride (^11C-raclopride). […] Control animals (Group 1) received two injections of ^11C-raclopride without any drug intervention in order to determine the test/retest variability of the measurement. […] Arterial blood samples were obtained throughout the study and selected plasma samples were analyzed for the presence of unchanged ^11C-raclopride. Animals were not removed from the gantry between isotope injections.
Each primate (n=16) received two ^11C-raclopride injections. […] Test/retest primates (n=7, Group 1, Table XVI) received placebo (0.9% saline, 1 ml/kg) 30 mins prior to the second radiotracer injection in order to determine the test/retest variability of the method.

[7] = tested on: extracellular DA levels in the NACC; conditions: SCH 50911 alone; cited from earlier work
GABAA receptor complex = conditions: in vivo; cited from earlier work
male Wistar rats = conditions: baclofen; cited from earlier work
rats [8] = conditions: baclofen 1.25-5 mg/kg i.p. acute pretreatment; for at least four hours; cited from earlier work
rats [9] = conditions: microinjection of baclofen into the ventral tegmental area; cited from earlier work
cocaine abuser = conditions: case report; cited from earlier work
NAc DA = assay: Microdialysis: cocaine/heroin (speedball) induced increases in NAc DA; assay type: in vivo, rats
Procedure: In vivo microdialysis studies were performed using adult male Sprague-Dawley rats (Taconic Farms) as detailed previously (Morgan and Dewey, 1998). Cocaine, a dopamine reuptake inhibitor, (n=6-8) was administered (i.p.) at a dose of 20 mg/kg while heroin, an indirect dopamine releaser, (n=6-8) was administered (i.p.) at a dose of 0.5 mg/kg. In studies designed to investigate the synergistic effects of a cocaine/heroin combination (n=6-8), both drugs were administered at the identical dose used in the single drug studies. Alone cocaine produced a marked elevation in extracellular DA of approximately 380% above baseline values, 60 minutes following administration. DA returned to baseline within 120 minutes. In contrast, heroin increased NAc DA by only 70%, 60 minutes following administration, returning to baseline within 140 minutes. However, when combined, the two drugs produced an increase in NAc DA of approximately 1000%, 180 minutes following administration that had not returned to baseline values by 200 minutes after reaching peak values (FIG. 9).

[10] = tested on: extracellular DA in the NACC; assay: Microdialysis: methamphetamine-induced increases in NACC DA; assay type: in vivo, rats
Description: All animals were used under an IACUC-approved protocol and with strict adherence to the NIH guidelines. Adult male Sprague-Dawley rats (200-300 g, Taconic Farms), housed in the animals care facility under 12:12 light/dark conditions, were placed into 6 groups (n=5-9), anesthetized and siliconized guide cannulae were stereotactically implanted into the right NACC (2.0 mm anterior and 1.0 mm lateral to bregms, and 7.0 mm ventral to the cortical surface) at least 4 days prior to study. Microdialysis probes (2.0 mm, Bioanalytical Systems, BAS, West Lafayette, Ind.) were positioned within the guide cannulae and artificial cerebrospinal fluid (ACSF, 155.0 mM NA^−, 1.1 mM Ca^2−, 2.9 mM K^−, 132.76 mM Cl^−, and 0.83 mM Mg^2−) was administered through the probe using a CMA/100 microinfusion pump (BAS) at a flow rate of 2.0 μl/min. Animals were placed in bowls, and probes were inserted and flushed with ACSF overnight. On the day of the study, a minimum of three samples were injected to determine baseline stability. Samples were collected for 20 min. and injected on-line (CMA/160, BAS). The average Dopamine concentration of these three stable samples was defined as control (100%), and all subsequent treatment values were transformed to a percentage of that control. […] The high performance liquid chromatography (HPLC) system consists of a BAS reverse-phase column (3.0 μC-18), a BAS LC-4C electrochemical transducer with a dual/glassy carbon electrode set at 650 mV, a computer that analyzes data on-line using a commercial software package (Chromograph Bioanalytical Systems), and a dual pen chart recorder. The mobile phase (flow rate 1.0 ml/min) consisted of 7.0% methanol, 50 mM sodium phosphate monobasic, 1.0 mM sodium octyl sulfate, and 0.1 mm […], pH 4.0. DA eluted at 7.5 min. Upon completion of the study, animals were decapitated and frozen sections were obtained for probe placement verification.
Methamphetamine at a dose of 1.25 mg/kg i.p. and 2.5 mg/kg i.p. was administered to the animals. It was noted that methamphetamine elevated extracellular DA concentrations in the NACC by approximately 2500% over basal levels, 100 minutes following administration of 2.5 mg/kg and approximately 1500% over basal levels following administration of 1.25 mg/kg (FIG. 6). DA returned to basal levels approximately 200 minutes following administration.

rat = conditions: cited from earlier work
[11] = Nicotine 0.4 mg/kg s.c./Vehicle, 4 pairings (Table XII)
[12] = acquisition, Saline/Nicotine 0.4 mg/kg s.c., 8 pairings (Table XV)
[13] = expression, Saline/Nicotine (0.4 mg/kg s.c.) 8 pairings, saline on test day
[14] = expression, Saline/Nicotine (0.4 mg/kg s.c.) 8 pairings, saline on test day, listed as nicotine

T1 sequence (Q9Z0U4 17-960 limits assumed): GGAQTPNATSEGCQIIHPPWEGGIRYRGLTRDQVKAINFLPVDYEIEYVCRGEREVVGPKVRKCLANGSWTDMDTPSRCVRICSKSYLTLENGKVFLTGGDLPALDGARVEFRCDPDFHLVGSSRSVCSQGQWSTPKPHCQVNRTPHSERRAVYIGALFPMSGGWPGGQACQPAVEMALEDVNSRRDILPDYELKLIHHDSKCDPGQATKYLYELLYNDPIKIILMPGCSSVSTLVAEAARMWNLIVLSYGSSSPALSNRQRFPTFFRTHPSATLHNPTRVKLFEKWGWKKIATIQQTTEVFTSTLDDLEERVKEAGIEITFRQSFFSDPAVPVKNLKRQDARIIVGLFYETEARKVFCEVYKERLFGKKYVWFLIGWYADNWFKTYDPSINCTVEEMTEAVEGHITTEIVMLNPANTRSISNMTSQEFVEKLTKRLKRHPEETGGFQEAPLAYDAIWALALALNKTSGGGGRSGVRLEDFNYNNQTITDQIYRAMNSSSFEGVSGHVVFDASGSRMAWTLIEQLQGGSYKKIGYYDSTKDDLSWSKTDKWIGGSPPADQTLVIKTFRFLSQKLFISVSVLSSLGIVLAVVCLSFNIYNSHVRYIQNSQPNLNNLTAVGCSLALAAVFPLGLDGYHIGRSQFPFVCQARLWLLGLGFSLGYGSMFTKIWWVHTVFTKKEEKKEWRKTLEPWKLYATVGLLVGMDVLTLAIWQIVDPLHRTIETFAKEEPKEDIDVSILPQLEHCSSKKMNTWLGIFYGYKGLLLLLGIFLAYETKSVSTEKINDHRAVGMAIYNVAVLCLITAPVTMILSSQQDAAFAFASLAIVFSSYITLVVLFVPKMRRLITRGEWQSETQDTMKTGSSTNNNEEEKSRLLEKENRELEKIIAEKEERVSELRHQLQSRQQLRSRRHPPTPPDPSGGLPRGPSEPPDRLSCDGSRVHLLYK
T1 sequence (O88871 41-940 partner): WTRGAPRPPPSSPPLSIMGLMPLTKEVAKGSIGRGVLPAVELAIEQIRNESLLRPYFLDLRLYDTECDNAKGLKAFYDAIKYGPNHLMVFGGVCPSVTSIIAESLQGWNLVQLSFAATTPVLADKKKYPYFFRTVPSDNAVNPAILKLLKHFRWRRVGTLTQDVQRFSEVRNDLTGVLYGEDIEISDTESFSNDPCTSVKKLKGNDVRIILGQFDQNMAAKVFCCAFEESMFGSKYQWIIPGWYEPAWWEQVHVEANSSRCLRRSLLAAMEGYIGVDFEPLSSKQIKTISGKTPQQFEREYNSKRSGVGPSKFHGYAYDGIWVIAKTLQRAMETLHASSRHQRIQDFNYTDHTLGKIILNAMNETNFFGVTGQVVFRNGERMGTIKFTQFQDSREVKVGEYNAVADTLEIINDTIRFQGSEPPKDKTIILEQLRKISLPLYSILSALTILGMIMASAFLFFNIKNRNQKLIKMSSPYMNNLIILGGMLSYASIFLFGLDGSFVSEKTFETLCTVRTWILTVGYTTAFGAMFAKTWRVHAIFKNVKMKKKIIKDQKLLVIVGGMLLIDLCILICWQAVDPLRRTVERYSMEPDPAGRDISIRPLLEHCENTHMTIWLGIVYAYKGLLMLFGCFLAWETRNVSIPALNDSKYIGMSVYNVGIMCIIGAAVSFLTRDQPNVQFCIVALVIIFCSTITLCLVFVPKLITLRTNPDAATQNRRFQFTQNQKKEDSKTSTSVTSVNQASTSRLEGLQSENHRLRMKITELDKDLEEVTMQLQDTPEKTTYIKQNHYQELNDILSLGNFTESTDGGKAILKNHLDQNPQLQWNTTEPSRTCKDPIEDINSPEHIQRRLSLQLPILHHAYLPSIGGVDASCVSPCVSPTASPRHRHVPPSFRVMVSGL

NCC(O)(CS(=O)(=O)O)c1ccc(Cl)cc1 (centres unmarked) [2-hydroxysaclofen]
effect of baclofen on morphine CPP (GABAB receptors): antagonized

CCO [Ethanol]
elevation of extracellular DA concentrations in the NACC over basal levels [1]: approximately 200%

CN1CCC[C@H]1c1cccnc1 [Nicotine]
gross locomotor activity (Sprague-Dawley rats): increased gross locomotor activity
NE increase (norepinephrine (NE)): 176±26%
increase in extracellular DA levels in the NACC ([2]; nicotine 0.6 mg/kg s.c.): 220%
increase in extracellular DA levels in the NACC ([2]; nicotine 0.8 mg/kg s.c.): 179%
DA increase [3]: 70±10.5%
5-HT increase (serotonin (5-HT)): 116±11.2%
increase of NACC DA levels (rank order) ([4]; nicotine): 90%
time for DA to return to basal levels ([4]; nicotine 0.4 mg/kg s.c., Group 1): approximately 160 minutes
DA levels, % of basal levels ([4]; nicotine 0.4 mg/kg s.c., Group 1 (naive)): approximately 200%
increase in extracellular DA concentrations in the NACC ([4]; nicotine 0.4 mg/kg s.c., Group 1 (naive), 80 minutes following administration): approximately 100%
Time spent in chambers, Paired (rats [5]; [11]): 9.4 ± 0.5 min
Time spent in chambers, Unpaired (rats [5]; [11]): 5.6 ± 0.5 min
Time spent in chambers, Paired (rats [5]; [12]): 9.6 ± 0.6^1 min
Time spent in chambers, Unpaired (rats [5]; [12]): 5.4 ± 0.6 min
Time spent in chambers, Paired (rats [5]; [13]): 9.6 ± 0.6 min
Time spent in chambers, Unpaired (rats [5]; [13]): 5.4 ± 0.6 min
Time spent in chambers, Paired (rats [5]; [14]): 9.6 ± 0.6 min
Time spent in chambers, Unpaired (rats [5]; [14]): 5.4 ± 0.6 min
reduction of the mean DV ratio ([6]; Group 3: nicotine alone): 12%
% Change in Mean DV Ratio ([6]; Group 3: nicotine alone 0.3 mg total, 30 minutes prior to second 11C-raclopride injection): −12.3 ± 2.6%

CC1(C)CO[C@@H](CC(=O)O)CN1 [SCH 50911]
DA levels when given alone [7]: does not significantly alter DA levels

Cc1nnc2n1-c1ccc(Cl)cc1C(c1ccccc1)=NC2 [alprazolam]
rate of cocaine self-administration (GABAA receptor complex): decreased the rate of cocaine self-administration

NCC(CC(=O)O)c1ccc(Cl)cc1 (centres unmarked) [baclofen]
break points for intravenous administration of cocaine (male Wistar rats): dose-dependent decrease
rate of drug intake (male Wistar rats): did not affect the rate of drug intake
self-administration of cocaine (rats [8]): suppress self-administration of cocaine
rate-current intensity curve of lateral hypothalamus stimulation (rats [9]): rightward shift of the rate-current intensity curve

NCC1(CC(=O)O)CCCCC1 [gabapentin]
cocaine withdrawal and craving (cocaine abuser): attenuated cocaine withdrawal and craving

CC(=O)Oc1ccc2c3c1O[C@H]1[C@@H](OC(C)=O)C=C[C@H]4[C@@H](C2)N(C)CC[C@@]341 [heroin]
time for DA to return to baseline (NAc DA; cocaine 20 mg/kg i.p. or heroin 0.5 mg/kg i.p. alone): ≤ 140 min
increase in NAc DA (NAc DA; heroin alone 0.5 mg/kg i.p., 60 minutes following administration): 70%

CN[C@@H](C)Cc1ccccc1 [methamphetamine]
time for DA to return to basal levels ([10]; methamphetamine): approximately 200 minutes
elevation of extracellular DA concentrations in the NACC over basal levels ([10]; methamphetamine 1.25 mg/kg i.p.): approximately 1500%

NC(=O)CCC/N=C(\c1ccc(Cl)cc1)c1cc(F)ccc1O [progabide]
conditioned place preference or aversion, alone (rat; progabide alone): does not produce conditioned place preference or aversion
CPP response to […] i.p. of amphetamine (rat; progabide pretreatment, present for 35 minutes): did not alter the CPP response

From patent US6890951B2, “Treatment of addiction and addiction-related behavior” (Brookhaven Science Associates LLC, priority 1998, dated 2005)
